“Also recorded” adds a separate entry of the source. Where two headings read alike, the source gives them in different places.
How the values were obtained:
[1] = system: FVB/N mice with serine/threonine kinase (AKT) overexpressed in the liver (NAFL-NASH-liver fibrosis)
Protocol: The serine/threonine kinase (AKT) and transposase plasmids were injected into the liver of the mice by a transposition system through hydrodynamics. The serine/threonine kinase was specifically overexpressed in the liver, and the mice except the control group were modeled. One week later, nonalcoholic fatty liver (NAFL) was formed; two weeks later, steatohepatitis (NASH) was formed; and four weeks later, a primary hepatic fibrosis model was established. In the formation of NAFL-NASH-liver fibrosis, the therapeutic effect of KD was observed.

[2] = system: SD mice with ANIT induced intrahepatic cholestasis; assay: ANIT-induced intrahepatic cholestasis; format: in vivo
Protocol: 42 SPF SD mice were purchased and raised in the SPF experimental animal center of Tongji Medical College of Huazhong University of Science and Technology. They were provided with standard diet and drinking water. The room temperature was controlled at 23±2° C. After 3 days of adaptive feeding, they were given drugs by intragastric administration. 42 SD mice were randomly divided into 7 groups (normal control group, ANIT model group, KD low-dose group, KD medium dose group, KD high-dose group, UDCA positive control group and KD negative control group), 6 mice in each group were weighed and recorded daily. […] Thereafter, the drug was given again every 24 hours for 3 times, and the animals in each group were fasted (water was provided) after the third time. 72 hours later, the animals were killed and samples were collected.

[3] = system: C57 mice with MCD-induced NASH; assay: Nonalcoholic steatohepatitis induced by methionine choline deficiency (MCD) feed; format: in vivo
Protocol: 150 SPF male mice C57 aged 6-8 weeks were raised in the SPF experimental animal center of Tongji Medical College of Huazhong University of Science and Technology. They were provided with standard diet and drinking water. The room temperature was controlled at 23±2° C. After 7 days of adaptive feeding, they were given drugs by intragastric administration. […] The control groups were administered with normal diet. The model group and each administration group were fed with methionine choline deficiency (MCD) feed. Each group was administrated by gavage. The control group and the model group were given equal amount of thrice steamed water once a day for 8 weeks. The mice were weighed every three days. The hair color, state, food, water and defecation of each group were observed, and the death of each group was recorded. At the end of the 2nd week, 4th week and 6th week, three mice were randomly selected and killed to observe the modeling state. At the end of the 8th week, after the last administration, all mice were provided with no food but water for 12 hours, and all indexes were measured.

[4] = system: C57BL/6 mice with HFFD nonalcoholic fatty liver; assay: Nonalcoholic fatty liver induced by high-fat and high fructose diet (HFFD); format: in vivo
Protocol: 60 SPF male C57BL/6 mice aged 4 weeks were raised in the SPF experimental animal center of Tongji Medical College of Huazhong University of Science and Technology. They were provided with standard diet and drinking water. The room temperature was controlled at 23±2° C. After 7 days of adaptive feeding, the mice were randomly divided into a control group with normal diet and a high-fat and high fructose diet group (40% fat, 40% fructose, 20% protein, HFFD). […] The mice were fed according to the groups, and the control group and the model group were fed with the same dose of normal saline for 4 weeks. […] The development of nonalcoholic fatty liver disease is closely related to the lipid levels of the liver and serum.

[5] = low, medium and high dose of KD

O=C1C[C@@H](O[C@@H]2O[C@H](CO)[C@@H](O)[C@H](O)[C@H]2O)CO1 [KD]
NO ([1]; liver fibrosis, KD 20 mg/kg): 54.11 ± 15.40 µmol/L | TNF-α ([1]; liver fibrosis, KD 20 mg/kg): 8.41 ± 0.52 pg/mL | IFN-γ ([1]; liver fibrosis, KD 30 mg/kg): 53.38 ± 1.65^##ΔΔ pg/mL | IL-2 ([1]; liver fibrosis, KD 30 mg/kg): 93.91 ± 2.05^##ΔΔ pg/mL | IL-10 ([1]; liver fibrosis, KD 30 mg/kg): 140.44 ± 7.64 pg/mL | IL-12 ([1]; liver fibrosis, KD 30 mg/kg): 242.08 ± 5.44 pg/mL | NO ([1]; liver fibrosis, KD 30 mg/kg): 59.06 ± 1.40 µmol/L | TNF-α ([1]; liver fibrosis, KD 30 mg/kg): 2.38 ± 0.57 pg/mL | fiber formation (Masson staining) ([1]; mouse, in vivo): had inhibitory effect on the fiber formation | oxidative stress injuries (MDA, SOD) ([1]; mouse, in vivo): could reverse these oxidative stress injuries | secretion of ALT, AST and inflammatory cytokines ([1]; mouse, in vivo): did not affect the secretion of ALT, AST and inflammatory cytokines | shear wave velocity of SWE (liver) ([1]; mouse, in vivo): could significantly reduce the shear wave velocity | plasma biochemical indexes ([2]; 100 mg/kg KD to normal mice): did not change | plasma color ([2]; KD 50, 100, 200 mg/kg or UDCA 80 mg/kg by gavage): turned light yellow similar to that of the normal control group | expression of Fxr and Cyp7a1 genes ([2]; cholestasis mice, high-dose KD): can significantly up regulate the expression of Fxr and Cyp7a1 genes | expression of Bsep, Mrp2 and Mrp3 genes ([2]; cholestasis mice, medium and high-dose KD): can significantly up regulate the expression of Bsep, Mrp2 and Mrp3 genes | hepatic sinusoid and inflammatory cell infiltration (HE staining) ([2]; different doses of KD, UDCA treatment group): the expansion of hepatic sinusoid was improved and the infiltration of inflammatory cells was reduced | plasma ALT, AST, AKP, TBIL and DBIL ([2]; low, medium and high doses of KD, 80 mg/kg UDCA): can significantly reduce ALT, AST, AKP, TBIL and DBIL | plasma TBA ([2]; medium and high doses of KD, 80 mg/kg UDCA): can significantly reduce TBA | ANIT-induced intrahepatic cholestasis liver injury (overall) ([2]; mouse, in vivo): can alleviate the liver injury induced by ANIT; also recorded: has a good therapeutic effect on ANIT-induced intrahepatic cholestasis liver injury | lipid droplet area of sections (Image J), compared with the positive group ([3]; 8 w, high-dose KD group): even better than that of the positive group | liver fat accumulation (oil red O staining) ([3]; 40, 20 and 10 mg/kg KD): Fat accumulation in liver was significantly reduced | liver cell apoptosis / Cleaved Caspase3 (CC3) protein (immunohistochemical staining) ([3]; KD group at different doses): could reduce the liver cell apoptosis to varying degrees, thus reducing the expression of liver CC3 protein | expression of Bcl-2, Bax and Casp3 genes in liver (RT-qPCR) ([3]; KD high-dose group): significantly increased the expression of anti-apoptotic gene Bcl-2, decreased the expression of pro-apoptotic gene Bax, reduced the expression of apoptotic marker gene Casp3 | fiber formation (Masson staining, fiber area) ([3]; all the KD groups, 8 weeks): the liver fiber content decreased, and the effect of KD was even better than that of the positive drug group; also recorded: had inhibitory effect on the fiber formation | liver coefficient (liver index) ([3]; different doses of KD): could reduce liver fat and normalize the liver index; also recorded: reduce liver coefficient | ALT and AST levels in the serum ([3]; different doses of KD, 8 weeks): the AST and ALT levels were decreased in each dose group of KD; also recorded: could significantly reduce the ALT and AST levels in the serum | expression of fibrotic marker protein α-SMA (Western blot, immunohistochemistry) ([3]; each KD dose group): could reduce the expression of α-SMA; also recorded: could be reduced in each KD dose group | lipid content ([3]; each KD group): slightly increased | serum HA and LN (ELISA) ([3]; each dose group of KD): could significantly reduce the content of HA and LN; also recorded: could reduce the content of HA and LN in varying degrees | expression of Bcl-xl and BAX proteins in liver (Western Blot) ([3]; mouse, in vivo): the expression of anti-apoptotic protein Bcl-xl was increased, and the proapoptotic protein BAX was inhibited | expression of MMP-13 in the liver (qPCR) ([3]; mouse, in vivo): increase the expression of matrix metalloproteinase-13 (MMP-13) | expression of pro-apoptotic and anti-apoptotic genes and proteins ([3]; mouse, in vivo): could also reduce the expression of pro-apoptotic genes and proteins, and increase the expression of anti-apoptotic genes | expression of α-SMA, Col I, TIMP-1 and TGF-β in the liver (qPCR) ([3]; mouse, in vivo): could effectively inhibit the expression | inflammatory infiltration of liver (HE staining) ([3]; mouse, in vivo): could inhibit the inflammatory infiltration of liver | oxidative stress (SOD, MDA in liver) ([3]; mouse, in vivo): SOD content in the liver increased and oxidative product MDA decreased; also recorded: could reverse the oxidative stress injuries | shear wave velocity / liver hardness (SWE) ([3]; mouse, in vivo): the liver hardness of the KD group decreased; also recorded: could significantly reduce the shear wave velocity | therapeutic effect on MCD-induced NASH (overall, vs silymarin and Fuzheng Huayu capsule) ([3]; mouse, in vivo): dose-dependent, and its effect was similar to that of the drugs silymarin and Fuzheng Huayu capsule, and was better than that of the drugs in some indexes; also recorded: has a good therapeutic effect on MCD-induced NASH | free fatty acid level in the serum ([4]; each dose of KD): could significantly inhibit the level of free fatty acids; also recorded: could significantly inhibit the free fatty acid level in the serum | triglyceride in the liver ([4]; each dose of KD): could significantly inhibit the level of triglyceride in the liver | expression level of total macrophage marker molecule F4/80 ([4]; high dose KD): inhibited the expression level of total macrophage marker molecule F4/80; also recorded: could inhibit the expression level of the total macrophage marker molecule F4/80 | liver lipid degeneration, size and number of lipid droplets (photos, H&E staining) ([4]; high, middle and low dose groups, 4 weeks): could significantly reduce liver lipid denaturation induced by high-fat and high-fructose diet and reduce the size and number of lipid droplets in liver; also recorded: could significantly reduce the lipid degeneration and inhibit the size and number of lipid droplets | secretion of anti-inflammatory cytokine IL-10 in serum [4, 5]: promoted the secretion of the anti-inflammatory cytokine IL-10; also recorded: increase the secretion of anti-inflammatory cytokine IL-10 | secretion of proinflammatory cytokines IL-6, MCP-1, IFN-γ, TNF-α and IL-2 in serum [4, 5]: significantly inhibited the secretion of pro-inflammatory cytokines IL6, MCP-1, IFN-γ, TNF-α and IL-2; also recorded: can significantly inhibit the secretion of proinflammatory cytokines IL-6, MCP-1, IFN-γ, TNF-α and IL-2 | total cholesterol in liver and serum ([4]; low, medium and high doses of KD): significantly inhibited; also recorded: significantly reduced | serum LDL level ([4]; low-dose KD): could significantly inhibit the level of serum LDL in mice | expression of COX-2 and M1-type macrophage molecules IL6 and IFN ([4]; medium and high dose KD): significantly inhibited the expression level of inflammatory molecule COX-2; also recorded: could significantly inhibit the expression level of inflammatory molecule COX-2 and the inflammatory M1-type macrophage molecules IL6 and IFN | expression of M2-type macrophage marker molecules CD206, ARG1 and IL1β ([4]; medium and high dose KD): promoted the expression of anti-inflammatory M2-type macrophage marker molecules CD206, ARG1 and IL1; also recorded: promote the expression of anti-inflammatory M2-type macrophage marker molecules CD206, ARG1 and IL1β | therapeutic effect on nonalcoholic fatty liver (overall, vs silymarin 50 mg/kg) ([4]; mouse, in vivo): the therapeutic effect was better than that of silymarin; also recorded: significantly better than that of silymarin; also recorded: has a good therapeutic effect on non-alcoholic fatty liver
